The values that follow come from ChEMBL document CHEMBL4152198, “The development of Bruton's tyrosine kinase (BTK) inhibitors from 2012 to 2017: A mini-review” (Eur J Med Chem, 2018).

Structures are written as SMILES. Where only a bound is given, the exact number is not on record here.

Broadly, the IC50 is the concentration that gives 50% inhibition. The term Kd denotes the constant that tells how readily two partners part at equilibrium. Higher therefore signals weaker binding.

In assay [1] the target is T1, Tyrosine-protein kinase BTK (Homo sapiens, UniProt Q06187). The assay can be described thus: Inhibition of BTK (unknown origin).
The target in assay [2] is T1, Tyrosine-protein kinase BTK. The assay can be described thus: Binding affinity to BTK (unknown origin) assessed as residence time.
Assay [3] addresses Ribosomal protein S6 kinase alpha-3 (Homo sapiens, UniProt P51812). The assay can be described thus: Binding affinity to RPS6KA3 (unknown origin).
For assay [4], the species on record is Homo sapiens. Kind of assay: Selectivity for BTK (unknown origin) over ITK (unknown origin).
For assay [5], the species on record is Homo sapiens. The assay can be described thus: Selectivity for BTK (unknown origin) over JAK3 (unknown origin).
The species entered for assay [6] is Homo sapiens. Kind of assay: Selectivity for BTK (unknown origin) over EGFR (unknown origin).
Assay [7] deals with T2, Tyrosine-protein kinase JAK3 (Homo sapiens, UniProt P52333).
T2 sequence (P52333 whole entry): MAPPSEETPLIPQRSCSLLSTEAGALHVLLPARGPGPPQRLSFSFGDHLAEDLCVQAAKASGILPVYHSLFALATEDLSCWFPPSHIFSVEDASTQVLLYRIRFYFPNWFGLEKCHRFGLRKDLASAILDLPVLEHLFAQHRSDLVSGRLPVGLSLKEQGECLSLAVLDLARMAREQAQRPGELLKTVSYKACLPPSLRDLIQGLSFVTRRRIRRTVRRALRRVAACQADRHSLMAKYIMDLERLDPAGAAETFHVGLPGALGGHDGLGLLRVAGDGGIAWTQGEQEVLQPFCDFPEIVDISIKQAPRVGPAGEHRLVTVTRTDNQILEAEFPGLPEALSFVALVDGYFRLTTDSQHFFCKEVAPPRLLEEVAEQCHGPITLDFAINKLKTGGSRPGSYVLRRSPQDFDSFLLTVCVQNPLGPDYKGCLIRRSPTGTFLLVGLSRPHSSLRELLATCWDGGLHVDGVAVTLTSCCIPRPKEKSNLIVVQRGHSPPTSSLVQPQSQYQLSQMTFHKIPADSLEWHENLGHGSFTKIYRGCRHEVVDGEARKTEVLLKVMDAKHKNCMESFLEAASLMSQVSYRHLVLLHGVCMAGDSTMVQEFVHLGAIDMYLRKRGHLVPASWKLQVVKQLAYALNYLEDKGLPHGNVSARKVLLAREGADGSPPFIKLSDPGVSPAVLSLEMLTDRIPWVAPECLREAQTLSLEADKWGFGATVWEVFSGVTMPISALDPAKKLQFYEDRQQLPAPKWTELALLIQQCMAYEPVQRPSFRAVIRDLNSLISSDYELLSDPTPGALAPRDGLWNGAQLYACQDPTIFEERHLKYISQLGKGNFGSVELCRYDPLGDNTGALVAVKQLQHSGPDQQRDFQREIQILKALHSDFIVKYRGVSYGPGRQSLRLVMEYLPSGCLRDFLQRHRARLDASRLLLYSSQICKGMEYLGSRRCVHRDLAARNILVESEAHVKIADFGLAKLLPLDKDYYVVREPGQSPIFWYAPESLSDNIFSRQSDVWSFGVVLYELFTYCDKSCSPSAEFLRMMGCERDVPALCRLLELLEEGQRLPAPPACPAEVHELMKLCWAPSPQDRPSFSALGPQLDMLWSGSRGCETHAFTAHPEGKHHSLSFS
The assay can be described thus: Inhibition of JAK3 (unknown origin).

Assay [8] concerns the target T1, Tyrosine-protein kinase BTK. Kind of assay: Binding affinity to BTK in human Ramos cells assessed as protein occupancy at 20 hrs post compound wash out. It counts as cell-based.
The target of assay [9] is Receptor tyrosine-protein kinase erbB-4 (Homo sapiens, UniProt Q15303). Kind of assay: Inhibition of ErbB4/HER4 (unknown origin).
The target of assay [10] is Tyrosine-protein kinase Lyn (Homo sapiens, UniProt P07948). Kind of assay: Inhibition of LYN (unknown origin).
For assay [11], the target named is T3, Tyrosine-protein kinase Tec (Homo sapiens, UniProt P42680).
T3 sequence (P42680 whole entry): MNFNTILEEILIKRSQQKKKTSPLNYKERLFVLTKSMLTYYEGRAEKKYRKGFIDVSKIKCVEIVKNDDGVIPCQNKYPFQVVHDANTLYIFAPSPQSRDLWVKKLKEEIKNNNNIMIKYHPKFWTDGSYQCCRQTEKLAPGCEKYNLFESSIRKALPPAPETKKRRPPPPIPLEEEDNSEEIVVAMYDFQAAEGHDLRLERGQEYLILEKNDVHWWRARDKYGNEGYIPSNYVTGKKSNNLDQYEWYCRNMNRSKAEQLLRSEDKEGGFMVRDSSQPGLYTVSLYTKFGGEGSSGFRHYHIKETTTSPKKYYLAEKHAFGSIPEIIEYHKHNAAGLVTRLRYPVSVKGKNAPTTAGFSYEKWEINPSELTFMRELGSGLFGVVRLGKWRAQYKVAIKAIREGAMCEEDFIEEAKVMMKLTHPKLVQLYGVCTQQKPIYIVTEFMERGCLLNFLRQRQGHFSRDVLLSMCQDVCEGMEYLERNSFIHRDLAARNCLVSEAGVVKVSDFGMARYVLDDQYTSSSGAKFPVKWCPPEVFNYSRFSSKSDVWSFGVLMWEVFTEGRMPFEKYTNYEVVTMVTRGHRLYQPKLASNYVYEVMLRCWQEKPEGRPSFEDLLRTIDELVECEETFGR
The assay can be described thus: Inhibition of TEC (unknown origin).

T1 sequence (Q06187 whole entry): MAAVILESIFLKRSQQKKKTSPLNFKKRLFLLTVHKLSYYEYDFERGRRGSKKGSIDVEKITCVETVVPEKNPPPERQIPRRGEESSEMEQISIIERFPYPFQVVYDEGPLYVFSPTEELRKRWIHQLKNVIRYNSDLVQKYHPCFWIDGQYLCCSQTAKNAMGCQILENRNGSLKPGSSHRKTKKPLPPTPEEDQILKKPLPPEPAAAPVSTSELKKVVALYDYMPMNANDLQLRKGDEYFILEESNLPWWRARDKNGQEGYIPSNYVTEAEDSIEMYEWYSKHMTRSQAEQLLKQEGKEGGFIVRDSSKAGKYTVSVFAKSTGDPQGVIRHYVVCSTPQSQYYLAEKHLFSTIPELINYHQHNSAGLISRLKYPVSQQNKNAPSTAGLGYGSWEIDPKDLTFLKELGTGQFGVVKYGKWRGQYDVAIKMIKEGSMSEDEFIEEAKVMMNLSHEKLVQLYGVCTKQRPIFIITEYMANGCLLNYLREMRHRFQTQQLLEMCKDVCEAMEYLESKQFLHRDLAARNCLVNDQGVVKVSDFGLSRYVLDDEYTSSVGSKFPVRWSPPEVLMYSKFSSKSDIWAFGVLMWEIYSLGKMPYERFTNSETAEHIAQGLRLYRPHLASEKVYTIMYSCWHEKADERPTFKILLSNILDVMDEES
Sequence of Ribosomal protein S6 kinase alpha-3 (P51812 whole entry): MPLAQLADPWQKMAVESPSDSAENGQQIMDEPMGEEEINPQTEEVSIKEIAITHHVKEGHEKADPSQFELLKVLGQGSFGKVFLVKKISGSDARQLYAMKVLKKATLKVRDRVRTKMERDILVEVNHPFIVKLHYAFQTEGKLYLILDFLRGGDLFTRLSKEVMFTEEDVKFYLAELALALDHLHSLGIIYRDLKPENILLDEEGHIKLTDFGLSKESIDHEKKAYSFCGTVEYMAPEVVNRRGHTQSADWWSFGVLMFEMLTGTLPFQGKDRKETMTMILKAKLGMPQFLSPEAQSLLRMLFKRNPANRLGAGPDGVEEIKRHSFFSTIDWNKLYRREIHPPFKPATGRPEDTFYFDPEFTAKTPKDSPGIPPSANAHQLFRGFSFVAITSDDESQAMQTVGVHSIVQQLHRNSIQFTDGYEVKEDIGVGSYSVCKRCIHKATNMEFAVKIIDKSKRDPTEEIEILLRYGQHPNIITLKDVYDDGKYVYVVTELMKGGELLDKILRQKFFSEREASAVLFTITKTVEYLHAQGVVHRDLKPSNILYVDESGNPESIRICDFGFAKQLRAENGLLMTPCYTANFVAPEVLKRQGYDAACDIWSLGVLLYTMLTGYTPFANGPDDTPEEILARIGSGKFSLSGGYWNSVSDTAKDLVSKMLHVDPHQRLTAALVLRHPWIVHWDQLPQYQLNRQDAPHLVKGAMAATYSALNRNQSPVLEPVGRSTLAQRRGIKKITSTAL
Sequence of Receptor tyrosine-protein kinase erbB-4 (Q15303 whole entry): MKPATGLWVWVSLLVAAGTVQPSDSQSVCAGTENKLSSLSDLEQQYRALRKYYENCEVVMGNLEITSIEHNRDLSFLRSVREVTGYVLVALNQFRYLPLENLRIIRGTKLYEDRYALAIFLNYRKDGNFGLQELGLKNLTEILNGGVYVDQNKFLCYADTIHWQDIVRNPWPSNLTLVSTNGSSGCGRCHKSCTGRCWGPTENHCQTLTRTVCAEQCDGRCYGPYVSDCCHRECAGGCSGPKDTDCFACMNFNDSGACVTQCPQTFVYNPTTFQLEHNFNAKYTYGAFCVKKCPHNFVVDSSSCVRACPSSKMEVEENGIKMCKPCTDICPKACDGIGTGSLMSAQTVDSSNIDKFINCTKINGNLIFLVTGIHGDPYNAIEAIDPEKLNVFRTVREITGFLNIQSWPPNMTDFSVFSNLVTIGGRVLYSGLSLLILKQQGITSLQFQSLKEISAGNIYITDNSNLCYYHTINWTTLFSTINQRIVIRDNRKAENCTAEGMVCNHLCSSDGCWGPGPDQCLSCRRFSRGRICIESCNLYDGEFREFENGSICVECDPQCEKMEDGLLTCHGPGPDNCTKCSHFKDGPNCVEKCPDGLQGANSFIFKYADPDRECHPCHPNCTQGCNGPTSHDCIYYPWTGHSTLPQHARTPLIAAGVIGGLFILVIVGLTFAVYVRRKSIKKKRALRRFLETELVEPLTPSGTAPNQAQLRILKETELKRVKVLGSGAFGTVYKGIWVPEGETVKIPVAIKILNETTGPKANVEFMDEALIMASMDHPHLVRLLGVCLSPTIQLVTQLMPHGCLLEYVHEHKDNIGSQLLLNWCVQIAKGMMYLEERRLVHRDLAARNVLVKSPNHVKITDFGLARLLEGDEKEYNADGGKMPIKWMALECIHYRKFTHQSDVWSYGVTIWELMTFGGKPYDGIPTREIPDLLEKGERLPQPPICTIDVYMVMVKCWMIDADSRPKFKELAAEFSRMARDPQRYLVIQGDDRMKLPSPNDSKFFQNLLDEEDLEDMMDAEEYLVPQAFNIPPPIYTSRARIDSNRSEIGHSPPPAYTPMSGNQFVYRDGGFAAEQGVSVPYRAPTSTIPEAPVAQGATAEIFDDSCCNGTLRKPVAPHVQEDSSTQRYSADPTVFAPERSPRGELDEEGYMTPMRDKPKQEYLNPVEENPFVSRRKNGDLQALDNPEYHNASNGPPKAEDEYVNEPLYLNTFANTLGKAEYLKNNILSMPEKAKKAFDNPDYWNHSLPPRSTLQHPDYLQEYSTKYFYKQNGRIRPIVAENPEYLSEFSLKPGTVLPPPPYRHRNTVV
Sequence of Tyrosine-protein kinase Lyn (P07948 whole entry): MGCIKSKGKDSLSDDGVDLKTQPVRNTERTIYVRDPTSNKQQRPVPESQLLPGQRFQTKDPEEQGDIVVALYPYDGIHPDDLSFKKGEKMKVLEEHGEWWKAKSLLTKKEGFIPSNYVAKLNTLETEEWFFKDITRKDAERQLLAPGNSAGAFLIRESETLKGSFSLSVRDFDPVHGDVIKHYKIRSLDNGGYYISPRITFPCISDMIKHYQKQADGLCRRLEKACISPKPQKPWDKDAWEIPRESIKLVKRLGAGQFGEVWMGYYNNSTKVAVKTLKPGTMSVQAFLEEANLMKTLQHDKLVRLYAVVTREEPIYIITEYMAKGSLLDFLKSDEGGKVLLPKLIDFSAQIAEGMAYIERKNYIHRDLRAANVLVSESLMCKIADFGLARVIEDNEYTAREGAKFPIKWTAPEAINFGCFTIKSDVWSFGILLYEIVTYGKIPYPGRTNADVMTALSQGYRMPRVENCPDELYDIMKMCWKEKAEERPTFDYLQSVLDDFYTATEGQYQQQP

In assay [1], `Cc1cc2[nH]ncc2cc1-c1cccc2c(N)c(C(N)=O)nnc12` came in with an IC50 of 2 nM.

As to `CN(C1COC1)C(C)(C)/C=C(\C#N)C(=O)N1CCC[C@H]1Cn1nc(-c2ccc(Oc3ccccc3)cc2F)c2c(N)ncnc21`, the TIME in assay [2] was 161 h. Further, the equilibrium dissociation constant (Kd) in assay [3] was found to be 0.54 nM. Further, the Selectivity ratio is 60 in the assay filed under Homo sapiens [4], greater than 1000 in the assay filed under Homo sapiens [5] and greater than 1000 in the assay filed under Homo sapiens [6].

For the molecule `CC(C)(C)/C=C(/C#N)C(=O)N1CCC[C@@H](n2nc(-c3ccc(Oc4ccccc4)cc3)c3c(N)ncnc32)C1`, the IC50 is greater than 5000 nM in [7] and 4 nM in assay [1]. Besides, the Occ in [8] was determined as 55%.

Regarding `CC(C)(/C=C(\C#N)C(=O)N1CCC[C@H](n2nc(-c3ccc(Oc4ccccc4)cc3F)c3c(N)ncnc32)C1)N1CCN(C2COC2)CC1`, the IC50 in [9] is 11.3 nM.

Turning to `C=CC(=O)Nc1cccc(Nc2nc(Nc3ccc(OCCOC)cc3)ncc2F)c1` [SPEBRUTINIB], the IC50 is 4400 nM in [10] and 6.2 nM in [11].

Molecule `C=CC(=O)Nc1cccc(Oc2nc(Nc3ccc(N4CCN(C)CC4)cc3)nc3ccoc23)c1` [POSELTINIB] gave an IC50 in [1] of 652 nM.
